What was measured:
[1] = system: ovariectomized estrogen treated rat; assay: Lordotic response in the ovariectomized estrogen treated rat (female sexual behavior); type: in vivo
Procedure: For initial preclinical evaluation of the effects on sexual behavior, the following study was conducted to evaluate the effects of test compound on lordotic response in the ovariectomized estrogen treated rat.
Animals: Long-Evans hooded female rates (100-125 g) male Sprague-Dawley rats (150-175 g) were obtained from Charles River Breeding laboratories.
Chemicals: Progesterone (Cat. # P-0130; Lot 128H0456) and estrone (Cat # E-9750; Lot 28H0372) were purchased from Sigma Chemical Company and quinelorane Cat # Q-110; Lot PRF-694A) and bupropion (Cat # B-102; BS-11-10) were purchased from Research Biochemicals Incorporated. Test compound (Lot # D5-91B) was synthesized at SK Biopharmaceutical Center, Fairfield, N.J. Estrone and progesterone were dissolved in propylene glycol (Fisher Scientific P355-1; Lot # 992032). test compound, quinelorane and bupropion were dissolved in sterile saline (0.9% NaCl, Abbott Laboratories Lot #25-270-DK).
Protocol for ovariectomy: Female rats (108-120 g) were anesthetized with 100 mg/kg s.c. ketamine (Ketaset 100 mg/ml, Ford Dodge Laboratories, lot #440339) and 7 mg/kg s.c. xylazine (Rompun 20 mg/ml, Bayer Corporation, lot #26050E). A midline incision (1 cm) on the ventral surface was made starting approximately 0.5-1 cm from the genitalia. A second incision (1 cm) was through the linea alba connecting fascia for abdominal muscles. The body of the uterus was located near the pubic bone and retracted through the abdominal incision. The uterine horns with ovaries were retracted through the abdominal wall. Each uterine horn was ligated near the uterine body bisected and removed. The abdominal, wall was closed with 2 sutures and the skin incision was closed with either wound clips or sutures. The rats were kept warm until they recovered from the anesthesia. OVX=ovariectomized.
Accelerated light cycle (10:14): Lights were on from 1 am to 11 am. During dark phase, the room was kept dark except for lighting from red lights needed to observe the behaviors.
Behavior observation arenas: Side walls (45×60 cm) and top (60×60 cm) with hole (15×15 cm) were constructed of clear Lucite plastic and bonded together with adhesive. The base was made from stainless steel grating and was placed over bedding material. Arenas and base were washed between experiments.
Protocol for female sexual behavior: At least 2-3 hours into the dark phase of the lighting cycle, male rats are placed into the behavior arenas and allowed to acclimate for 15 minutes prior to testing. Prior to the testing of experimental animals, the males are exposed to sexually receptive, OVX rats treated with estrone 0.25 mg s.c. 48 hours prior to test and progesterone 1 mg s.c. 6 hours prior to test. When active mating occurs, the receptive females are removed. The test female (OVX treated only with estrone 0.25 mg 48 hours prior to test) is added to the arena with the activated male. The number of lordosis responses for 15 mounts is recorded (lordosis is defined as a downward arching of the back to expose genitalia).
During this first test period, only female rats with a L/M of 4/15 or lower were treated with test drug and 90 minutes later the rats were retested as previously for 15 mounts. This exclusion criterion is used to lower the variance due to rats that become overly receptive to estrone. The index of change is the change in L/M between test 2 and test 1. Statistical comparisons of the treatment groups were made using ANOVA followed by a Dunnett's test for multiple treatment group designs and a Student's t test for single control and treatment designs with the minimum level of significance set at p<0.05.

patients = settings: Foreman 1995; cited from earlier work
rats and mice = assay: Locomotor activity in rats and mice; type: in vivo; settings: at higher dose
Text: Although the mechanism of action of test compound is unknown, this pharmacological profile may involve activation of central catecholaminergic pathways.

humans = assay: Placebo controlled antidepressant trial in humans, analysis of post trial questionnaires; type: in vivo, human; settings: mostly in males
Text: This was a large placebo controlled study where the test compound was compared with a conventional SSRI antidepressant (Paroxetine). […] This study was not designed to see or evaluate this property of the compound and so future studies directed specifically to assess this property of test compound in humans will be performed.

| Compound | Lordotic response compared to vehicle treatment ([1]; 30 mg/kg s.c.) | Change in Lordotic Response ([1]; 30 mg/kg s.c., change in L/M, * significantly different from vehicle (Student's test)) | Effect on sexual response in patients (patients) | Lordotic response compared to vehicle treatment ([1]; 25 μg/kg s.c.) | Change in Lordotic Response ([1]; 25 μg/kg s.c., change in L/M, * significantly different from vehicle (Student's test)) | Effects on locomotor activity (rats and mice) | Dose of peak effect on interest in sex and ability to have an orgasm (humans) | Effect on interest in sex and ability to have an orgasm (post trial questionnaires) (humans; placebo controlled study with Paroxetine comparator) | Change in Lordotic Response ([1]; 10 mg/kg s.c., change in L/M between test 2 and test 1, retest 90 minutes after drug, OVX estrone treated female rats) | Change in Lordotic Response ([1]; 30 mg/kg s.c., change in L/M between test 2 and test 1, retest 90 minutes after drug, * significantly different from vehicle (ANOVA, Dunnett's test)) | Change in Lordotic Response ([1]; 100 mg/kg s.c., change in L/M between test 2 and test 1, retest 90 minutes after drug, * significantly different from vehicle (ANOVA, Dunnett's test)) | Lordotic response compared to vehicle treatment ([1]; 30 and 100 mg/kg s.c.) | Lordotic behavior in the female rat, dose relation ([1]; doses of 10, 30 and 100 mg/kg s.c.) |
| --- | --- | --- | --- | --- | --- | --- | --- | --- | --- | --- | --- | --- | --- |
| CC(NC(C)(C)C)C(=O)c1cccc(Cl)c1 (centres unmarked) [Bupropion, bupropion, reference compound] | significant increases in lordotic response | 0.478 +/− 0.073 * | augment sexual response in patients |  |  |  |  |  |  |  |  |  |  |
| CCCN1CCC[C@@H]2Cc3nc(N)ncc3C[C@H]21 [Quinelorane, quinelorane, reference compound] |  |  | augment sexual response in patients | significant increases in lordotic response | 0.593 +/− 0.056 * |  |  |  |  |  |  |  |  |
| NC(=O)OC[C@H](N)Cc1ccccc1 [test compound, O-carbamoyl-(D)-phenylalaninol] |  |  |  |  |  | stimulant-like effects on locomotor activity | 400 mg per day | increasing interest in sex and in ability to have an orgasm | 0.338 +/− 0.049 | 0.476 +/− 0.049 * | 0.559 +/− 0.059 * | significantly greater lordotic response than vehicle treatment | dose-related increases in lordotic behavior |

Reference: patent US8552060B2, “Methods for treatment of sexual dysfunction” (SK Biopharmaceuticals Co., Ltd., priority 2005, dated 2013)
